Marks after values point to notes of the source that are not given here.
Experiments:
Type in all cases: cell-based
[1] = tested on: S. aureus; experiment: MIC on DST-agar plates against S. aureus; parameters: key: +++: Same growth as on the control plate without any chlorhexidine and/or pentane-1,5-diol; ++: Reduced growth compared to the control; +: Very poor growth; −: No growth
Experimental: The minimal inhibitory concentration (MIC) of pentane-1,5-diol and chlorhexidine against S. aureus was determined using bacteria concentrations of 6×10^6 (20 μl applicated onto DST-agar plates). The results are depicted below in table 1 and 2.
The minimal inhibitory concentration (MIC) of pentane-1,5-diol combined with chlorhexidine against S. aureus was determined using bacteria concentrations of 6×10^6 (20 μl applicated onto DST-agar plates).

[2] = tested on: P. acnes; experiment: MIC on blood agar plates against P. acnes; parameters: key: +++: Same growth as on the control plate without any chlorhexidine and/or pentane-1,5-diol; ++: Reduced growth compared to the control; +: Very poor growth; −: No growth
Experimental: The minimal inhibitory concentration (MIC) of pentane-1,5-diol and chlorhexidine against P. acnes was determined using bacteria concentrations of 6×10^6 (20 μl applicated onto blood agar plates). The results are depicted below in table 4 and 5.
The minimal inhibitory concentration (MIC) of pentane-1,5-diol combined with chlorhexidine against P. acnes was determined using bacteria concentrations of 6×10^6 (20 μl applicated onto blood agar plates).

[3] = tested on: S. pyogenes A CCUG 4208; experiment: MIC on blood agar plates against S. pyogenes A CCUG 4208; parameters: key: +++: Same growth as on the control plate without any chlorhexidine and/or pentane-1,5-diol; ++: Reduced growth compared to the control; +: Very poor growth; −: No growth
Experimental: The minimal inhibitory concentration (MIC) of pentane-1,5-diol combined with chlorhexidine against S. pyogenes A CCUG 4208 was determined using bacteria concentrations of 6×10^7 (20 μl applicated onto blood agar plates). The results are depicted below in table 7 and 8.

[4] = tested on: C. albicans (CCUG 5594); experiment: MIC by agar dilution assay, C. albicans
Experimental: (§1) Chlorhexidine digluconate (CHG) solution, 20% water, […]-25ML, (Sigma, St. Louis, USA) and PD, (BASF AG, Ludwigshafen, Germany) were used in the study and the following reference strains were tested; C. albicans (CCUG 5594), S. aureus (CCUG 17621) and P. acnes (CCUG 1794). Minimum inhibitory concentration of CHG and pentane-1,5-diol (PD) were determined by agar dilution assay. A series of dilutions of each compound were prepared in blood agar medium for P. acnes, and in Diagnostic Sensitivity Test (DST) agar (Oxoid, Basingstoke, UK) for C. albicans and S. aureus. Dilution series with each agent were made with freshly prepared agar at 48-50° C. Final concentration ranges were as follows: CHG solution, 0.00001 to 1% (w/v) and PD, 1-30% (v/v). The prepared plates were solidified and used immediately. For each organism an inoculum was prepared by growing organisms on blood agar. Colonies were suspended in phosphate-buffered saline (PBS) and suspensions were adjusted to approximately 6×10^6 CFU/ml for C. albicans and P. acnes and 6×10^5 CFU/mL for S. aureus. The plates were inoculated with 20 μl spots and incubated for one day for C. albicans and S. aureus and three days for P. acnes. MICs were then determined as the lowest concentration of the compound inhibiting growth of the isolates. First the MICs of CHG and PD, respectively, were determined for each micro-organism. Then, a range of combined CHG and PD concentrations were tested on each micro-organism to determine if there was synergistic activity. The definition of synergistic effect is: “An effect that is greater than the sum of the effects of the two drugs, such as the equation: 1+1 . . . ”. Each isolate was tested twice.

[5] = tested on: S. aureus (CCUG 17621); experiment: MIC by agar dilution assay, S. aureus
Experimental: as §1

[6] = tested on: P. acnes (CCUG 1794); experiment: MIC by agar dilution assay, P. acnes
Experimental: as §1

[7] = C. albicans CCUG5594, agar dilution
[8] = S. aureus CCUG17621, agar dilution
[9] = P. acnes CCUG1794, agar dilution
[10] = growth grade at pentane-1,5-diol 5 wt %
[11] = growth grade at pentane-1,5-diol 6 wt %
[12] = growth grade at pentane-1,5-diol 7 wt %
[13] = growth grade at pentane-1,5-diol 10 wt %
[14] = growth grade at pentane-1,5-diol 20 wt %
[15] = growth grade at pentane-1,5-diol 30 wt %

In the case of `[H]/N=C(\N/C(=N/[H])NCCCCCCNC(=N)NC(=N)Nc1ccc(Cl)cc1)Nc1ccc(Cl)cc1` [Chlorhexidine, chlorhexidine digluconate], the bacterial growth grade ([1]; S. aureus, growth grade at chlorhexidine 0.00001 wt %) is reported as “+++”, the bacterial growth grade ([1]; S. aureus, growth grade at chlorhexidine 0.00005 wt %) is reported as “++” and the bacterial growth grade ([1]; S. aureus, growth grade at chlorhexidine 0.0001 wt %) is reported as “−”. The bacterial growth grade ([1]; S. aureus, growth grade at chlorhexidine 0.0005 wt %) was “−”, the bacterial growth grade ([1]; S. aureus, growth grade at chlorhexidine 0.001 wt %) was “−” and the bacterial growth grade ([1]; S. aureus, growth grade at chlorhexidine 0.005 wt %) was “−”. The bacterial growth grade ([1]; S. aureus, growth grade at chlorhexidine 0.01 wt %) was “−”, the bacterial growth grade ([1]; S. aureus, growth grade at chlorhexidine 0.02 wt %) was “−” and the bacterial growth grade ([1]; S. aureus, growth grade at chlorhexidine 0.05 wt %) was “−”. For the same molecule, the bacterial growth grade ([1]; S. aureus, growth grade at chlorhexidine 0.1 wt %) was “−”, the bacterial growth grade ([1]; S. aureus, growth grade at chlorhexidine 0.5 wt %) was “−” and the bacterial growth grade ([1]; S. aureus, growth grade at chlorhexidine 1 wt %) was “−”. For the same molecule, the growth grade ([2]; growth grade at chlorhexidine 0.00001 wt %) was “+++”, the growth grade ([2]; growth grade at chlorhexidine 0.00005 wt %) was “++” and the growth grade ([2]; growth grade at chlorhexidine 0.0001 wt %) was “−”. For the same molecule, the growth grade ([2]; growth grade at chlorhexidine 0.0005 wt %) was “−”, the growth grade ([2]; growth grade at chlorhexidine 0.001 wt %) was “−” and the growth grade ([2]; growth grade at chlorhexidine 0.005 wt %) was “−”. The growth grade ([2]; growth grade at chlorhexidine 0.01 wt %) was “−”, the growth grade ([2]; growth grade at chlorhexidine 0.02 wt %) was “−” and the growth grade ([2]; growth grade at chlorhexidine 0.05 wt %) was “−”. For the same molecule, the growth grade ([2]; growth grade at chlorhexidine 0.1 wt %) was “−”, the growth grade ([2]; growth grade at chlorhexidine 0.5 wt %) was “−” and the growth grade ([2]; growth grade at chlorhexidine 1 wt %) was “−”. The growth grade ([3]; growth grade at chlorhexidine digluconate 0.00001 %) was “+++”, the growth grade ([3]; growth grade at chlorhexidine digluconate 0.00005 %) was “+++” and the growth grade ([3]; growth grade at chlorhexidine digluconate 0.0001 %) was “+”. For the same molecule, the growth grade ([3]; growth grade at chlorhexidine digluconate 0.0005 %) was “−”, the growth grade ([3]; growth grade at chlorhexidine digluconate 0.001 %) was “−” and the growth grade ([3]; growth grade at chlorhexidine digluconate 0.005 %) was “−”. The growth grade ([3]; growth grade at chlorhexidine digluconate 0.01 %) was “−”, the growth grade ([3]; growth grade at chlorhexidine digluconate 0.05 %) was “−” and the growth grade ([3]; growth grade at chlorhexidine digluconate 0.1 %) was “−”. For the same molecule, the growth grade ([3]; growth grade at chlorhexidine digluconate 0.5 %) was “−”, the “factor by which MIC of CHG was lower than PD” value ([4]; C. albicans) was 1×10^−4 and the “MIC combined CHG” value ([4]; C. albicans CCUG5594, CHG in combination with PD 3 v/v %) was 0.00005 w/v %. The “MIC alone CHG” value [4, 7] was 0.0005 w/v %, the “Ratio (alone/combined) CHG/CHG + PD” value ([4]; C. albicans CCUG5594, reduction of the MIC of CHG) was 10 and the “factor by which MIC of CHG was lower than PD” value ([5]; S. aureus) was 6×10^−5. The “MIC combined CHG” value ([5]; S. aureus CCUG17621, CHG in combination with PD 8 v/v %) was 0.00001 w/v %, the “MIC alone CHG” value [5, 8] was 0.0001 w/v % and the “Ratio (alone/combined) CHG/CHG + PD” value ([5]; S. aureus CCUG17621, reduction of the MIC of CHG) was 10. The “factor by which MIC of CHG was lower than PD” value ([6]; P. acnes) was 9×10^−5, the “MIC combined CHG” value ([6]; P. acnes CCUG1794, CHG in combination with PD 3 v/v %) was 0.00005 w/v % and the “MIC alone CHG” value [6, 9] was 0.0001 w/v %. For the same molecule, the “Ratio (alone/combined) CHG/CHG + PD” value ([6]; P. acnes CCUG1794, reduction of the MIC of CHG) was 2.
In the case of `OCCCCCO` [Pentane-1,5-diol, pentane-1,5-diol], the bacterial growth grade [1, 10] is reported as “+++^a”, the bacterial growth grade [1, 11] is reported as “++” and the bacterial growth grade [1, 12] is reported as “++”. For the same molecule, the bacterial growth grade ([1]; growth grade at pentane-1,5-diol 8 wt %) was “+”, the bacterial growth grade ([1]; growth grade at pentane-1,5-diol 9 wt %) was “−” and the bacterial growth grade [1, 13] was “−”. For the same molecule, the bacterial growth grade [1, 14] was “−”, the bacterial growth grade [1, 15] was “−” and the growth grade ([2]; growth grade at pentane-1,5-diol 1 wt %) was “+++”. The growth grade ([2]; growth grade at pentane-1,5-diol 3 wt %) was “++”, the growth grade [2, 10] was “+” and the growth grade [2, 11] was “−”. For the same molecule, the growth grade [2, 12] was “−”, the growth grade [2, 13] was “−” and the growth grade [2, 14] was “−”. For the same molecule, the growth grade [2, 15] was “−”, the growth grade ([3]; growth grade at 1,5-pentanediol 2 %) was “+++” and the growth grade ([3]; growth grade at 1,5-pentanediol 4 %) was “++”. The growth grade ([3]; growth grade at 1,5-pentanediol 6 %) was “+”, the growth grade ([3]; growth grade at 1,5-pentanediol 7 %) was “−” and the growth grade ([3]; growth grade at 1,5-pentanediol 8 %) was “−”. For the same molecule, the growth grade ([3]; growth grade at 1,5-pentanediol 9 %) was “−”, the growth grade ([3]; growth grade at 1,5-pentanediol 10 %) was “−” and the growth grade ([3]; growth grade at 1,5-pentanediol 15 %) was “−”. The “MIC combined PD” value ([4]; C. albicans CCUG5594, PD in combination with CHG 0.00005 w/v %) was 3 v/v %, the “MIC alone PD” value [4, 7] was 5 v/v % and the “Ratio (alone/combined) PD/PD + CHG” value ([4]; C. albicans CCUG5594, reduction of the MIC of PD) was 2. The “MIC combined PD” value ([5]; S. aureus CCUG17621, PD in combination with CHG 0.00001 w/v %) was 8 v/v %, the “MIC alone PD” value [5, 8] was 9 v/v % and the “Ratio (alone/combined) PD/PD + CHG” value ([5]; S. aureus CCUG17621, reduction of the MIC of PD) was 1. For the same molecule, the “MIC combined PD” value ([6]; P. acnes CCUG1794, PD in combination with CHG 0.00005 w/v %) was 3 v/v %, the “MIC alone PD” value [6, 9] was 6 v/v % and the “Ratio (alone/combined) PD/PD + CHG” value ([6]; P. acnes CCUG1794, reduction of the MIC of PD) was 2.
